Results taken from ChEMBL document CHEMBL6121060, “Discovery and Development of CFTR Modulators for the Treatment of Cystic Fibrosis” (J Med Chem, 2025).
Converted amounts (≈) assume the structure as drawn.

How the values were obtained:
[1] = target: T1, Cystic fibrosis transmembrane conductance regulator (Homo sapiens, UniProt P13569, F508DEL); assay: Activation of CFTR F508del mutant (unknown origin)
[2] = AUC in rat at 3 mg/kg, po; details: in vivo
[3] = Solubility of compound at pH 6.8 incubated for 12 hrs by HPLC analysis; assay type: physicochemical; details: buffer
[4] = Metabolic stability in rat liver microsomes assessed as intrinsic clearance; assay type: ADME, Microsome
[5] = target: T1, Cystic fibrosis transmembrane conductance regulator; assay: Potentiation of CFTR F508del mutant (unknown origin)
[6] = target: T1, Cystic fibrosis transmembrane conductance regulator; assay: Potentiation of CFTR F508del mutant (unknown origin) expressed in NIH3T3 cells; assay type: cell-based
[7] = target: T2, PXR (nuclear receptor subfamily 1 group I member 2) (Homo sapiens, UniProt O75469); assay: Activation of PXR (unknown origin) at 10 uM relative to control; details: read-out: Activity
T2 sequence (O75469 whole entry): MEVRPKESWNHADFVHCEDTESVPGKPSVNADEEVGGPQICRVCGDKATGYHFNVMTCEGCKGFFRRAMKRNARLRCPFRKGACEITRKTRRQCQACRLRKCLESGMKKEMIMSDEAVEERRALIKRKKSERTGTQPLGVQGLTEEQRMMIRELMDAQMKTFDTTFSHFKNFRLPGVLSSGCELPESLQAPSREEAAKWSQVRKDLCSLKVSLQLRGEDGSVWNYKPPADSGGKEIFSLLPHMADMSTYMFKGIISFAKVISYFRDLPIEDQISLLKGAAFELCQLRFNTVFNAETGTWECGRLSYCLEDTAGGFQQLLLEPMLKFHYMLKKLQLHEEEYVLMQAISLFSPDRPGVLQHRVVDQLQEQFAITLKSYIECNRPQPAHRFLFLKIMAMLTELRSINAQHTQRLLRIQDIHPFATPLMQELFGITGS

[8] = Apparent permeability across apical to basolateral side in MDCK cells; assay type: ADME, cell-based, Canis lupus familiaris; details: dog
[9] = target: T3, Nuclear receptor subfamily 1 group I member 2 (Homo sapiens, UniProt O75469); assay: Activation of PXR (unknown origin) at 10 uM relative to rifampicin
T3 sequence (O75469 whole entry): T2 sequence (O75469 whole entry)

[10] = Oral bioavailability in rat; assay type: ADME, organism-based; details: in vivo

T1 sequence (P13569 as listed by the source): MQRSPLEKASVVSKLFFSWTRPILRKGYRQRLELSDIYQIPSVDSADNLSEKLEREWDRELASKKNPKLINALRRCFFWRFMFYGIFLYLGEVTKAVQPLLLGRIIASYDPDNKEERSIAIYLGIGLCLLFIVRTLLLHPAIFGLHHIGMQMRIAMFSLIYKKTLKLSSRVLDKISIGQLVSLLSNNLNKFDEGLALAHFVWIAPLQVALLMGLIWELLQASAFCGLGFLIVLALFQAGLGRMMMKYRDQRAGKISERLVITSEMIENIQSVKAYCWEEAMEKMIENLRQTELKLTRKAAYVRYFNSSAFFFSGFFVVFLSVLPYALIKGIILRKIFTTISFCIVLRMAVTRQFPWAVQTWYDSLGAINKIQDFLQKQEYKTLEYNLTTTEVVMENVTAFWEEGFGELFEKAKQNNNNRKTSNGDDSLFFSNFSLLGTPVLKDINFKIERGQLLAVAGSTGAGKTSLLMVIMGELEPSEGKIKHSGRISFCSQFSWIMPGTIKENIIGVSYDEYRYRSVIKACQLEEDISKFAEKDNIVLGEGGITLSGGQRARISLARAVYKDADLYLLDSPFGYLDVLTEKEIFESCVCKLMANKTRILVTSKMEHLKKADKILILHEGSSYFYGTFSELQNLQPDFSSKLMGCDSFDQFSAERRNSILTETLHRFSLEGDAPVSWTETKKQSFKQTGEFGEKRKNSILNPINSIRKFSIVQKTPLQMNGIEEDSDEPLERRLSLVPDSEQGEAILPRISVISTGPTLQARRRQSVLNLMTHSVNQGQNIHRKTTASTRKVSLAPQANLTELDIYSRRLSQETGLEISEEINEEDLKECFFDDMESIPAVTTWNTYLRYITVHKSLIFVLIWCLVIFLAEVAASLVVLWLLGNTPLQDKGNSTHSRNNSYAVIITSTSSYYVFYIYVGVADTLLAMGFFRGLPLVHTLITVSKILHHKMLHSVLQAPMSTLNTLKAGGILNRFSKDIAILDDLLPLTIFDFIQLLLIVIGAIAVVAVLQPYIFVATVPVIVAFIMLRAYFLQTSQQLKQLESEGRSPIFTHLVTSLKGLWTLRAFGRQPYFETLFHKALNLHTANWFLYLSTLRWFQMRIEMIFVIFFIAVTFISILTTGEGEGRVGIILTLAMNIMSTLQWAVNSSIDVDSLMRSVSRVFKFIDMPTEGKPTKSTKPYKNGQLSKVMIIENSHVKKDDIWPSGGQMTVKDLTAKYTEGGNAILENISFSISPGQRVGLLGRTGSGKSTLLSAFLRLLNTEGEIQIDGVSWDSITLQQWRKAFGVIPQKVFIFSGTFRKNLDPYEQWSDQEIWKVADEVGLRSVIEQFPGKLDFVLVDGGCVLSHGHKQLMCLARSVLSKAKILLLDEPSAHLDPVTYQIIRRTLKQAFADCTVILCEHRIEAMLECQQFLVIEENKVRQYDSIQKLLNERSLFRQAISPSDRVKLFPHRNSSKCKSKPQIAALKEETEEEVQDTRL

SMILES | EC50 [1] | also measured
CCOc1ccc(CC)cc1[C@@]1(C(=O)NS(=O)(=O)c2cccc3nc(C)ccc23)CCCO1 | 30 nM | –
Cc1nn(-c2ccc(F)cc2)c2nc(C(=O)NS(C)(=O)=O)cc(-c3ccc(N4CCOCC4)cc3)c12 | 1260 nM | –
Nc1cc(S(=O)(=O)c2ccc(OC(F)(F)F)cc2)cnc1-c1nnc([C@@H](O)c2ccccc2)o1 | 1.1 nM | –
C[C@@H]1CN(c2nc(-n3ccc(OCC4(C(F)(F)F)CCC4)n3)ccc2C(=O)NS(=O)(=O)c2ccccc2)C(C)(C)C1 | 40 nM | AUC [2]: 2200 ng·h/mL
CNC(=O)c1nc(-c2ccco2)c(C(F)(F)F)cc1N | – | solubility at 12 h [3]: 40 µg/mL (≈ 140 µM); CLint [4]: 205 µL/min/mg; EC50 [5]: 1860 nM
CC(C)(CN1CCCCCCc2ccccc2-c2nc(ccc2C(F)(F)F)NS(=O)(=O)c2cccc1n2)C(=O)O | 80 nM | –
CCc1ccccc1-c1nc(NS(=O)(=O)c2cccc(N(CCCC(=O)O)C(C)C)n2)ccc1C(F)(F)F | 2 nM | –
Nc1cc(C(F)(F)F)c(Br)nc1C(=O)NCCC(F)(F)F | – | solubility at 12 h [3]: 170 µg/mL (≈ 447 µM); CLint [4]: 55.8 µL/min/mg
Cc1nn(C)cc1S(=O)(=O)NC(=O)c1ccc(-n2ccc(OCC3(C(F)(F)F)CC3)n2)nc1N1C[C@@H](C)CC1(C)C | – | EC50 [6]: 220 nM; activity at 10 µM [7]: 4%; Papp A→B [8]: 7.1 ×10⁻⁶ cm/s
Cc1ccc(C2CCCCC2)c(OC2(C(=O)NS(=O)(=O)c3cccc(N4CCC(N)(C(F)(F)F)CC4)n3)CC2)c1 | 4 nM | –
C[C@@H]1CN(c2nc(-n3ccc(OCCC4(C(F)(F)F)CC4)n3)ccc2C(=O)NS(=O)(=O)c2ccccc2)C(C)(C)C1 [BAMOCAFTOR] | 30 nM | Activity [9]: 3%; AUC [2]: 21000 ng·h/mL
Cc1ccc(C2CCCCCC2)c(OC2(C(=O)NS(=O)(=O)c3cccc(N)n3)CC2)c1 | 2 nM | –
COc1ccc(C)cc1[C@]1(C(=O)NS(=O)(=O)c2cccc3nc(C)ccc23)C[C@@H](c2ccccc2)CO1 | 30 nM | –
CNC(=O)c1nc(Br)c(C(F)(F)F)cc1N | – | CLint [4]: 100 µL/min/mg
CC1(C)Cc2c(sc(NC(=O)c3ccccc3O)c2C(N)=O)C(C)(C)O1 | 15 nM | –
COc1ccc(C)cc1[C@]1(C(=O)NS(=O)(=O)c2cccc3nc(C)ccc23)C[C@@H]1c1cnc(C(C)C)cn1 | 30 nM | –
Cc1nn(C)cc1S(=O)(=O)NC(=O)c1ccc(-n2ccc(OCC(C)(C)C(F)(F)F)n2)nc1N1C[C@@H](C)CC1(C)C [ELEXACAFTOR] | – | bioavailability [10]: 83%; EC50 [6]: 70 nM; activity at 10 µM [7]: 2%; Papp A→B [8]: 4.5 ×10⁻⁶ cm/s
COc1ncc(C2CCC2)cc1C1(C(=O)NS(=O)(=O)c2cccc3c2CCCN3)CC1 | < 3000 nM | –
Cc1ccc(C2CCCCC2)c(OC2(C(=O)NS(=O)(=O)c3cccc(N4CCOC[C@@H]4C)n3)CC2)c1 | 80 nM | –
Nc1cc(S(=O)(=O)c2ccc(OC(F)(F)F)cc2)cnc1-c1nnc(CO)o1 [NAVOCAFTOR] | 5.6 nM | –
Cc1ccc(-c2cccc(C(F)(F)F)c2)c(OC2(C(=O)NS(=O)(=O)c3cccc(N4CCC(N)(C(F)(F)F)CC4)n3)CC2)c1 | 80 nM | –
CC(O)(c1nnc(-c2ncc(S(=O)(=O)c3ccc(OC(F)(F)F)cc3)cc2N)o1)C(F)(F)F (stereo not drawn) | 1.8 nM | –
COc1ccc(C2CCC2)cc1C1(C(=O)NS(=O)(=O)c2cccc3ccccc23)CC1 | < 3000 nM | –
Cc1ccccc1-c1nc(NS(=O)(=O)c2cccc(N3CCC[C@H](CC(=O)O)C3)n2)ccc1C(F)(F)F | 100 nM | –
COc1ccc(C)cc1[C@]1(C(=O)NS(=O)(=O)c2cccc3nc(C)ccc23)C[C@@H]1c1cccc(C(F)(F)F)c1 (racemic) | 5 nM | –
CC1(C)Cc2c(sc(NC(=O)[C@@H](O)C(C)(C)C)c2C(N)=O)C(C)(C)O1 | 127 nM | –
C[C@@H]1CN(c2nc(-n3ccc(OCC4(C(F)(F)F)CC4)n3)ccc2C(=O)NS(=O)(=O)c2ccccc2)C(C)(C)C1 | 40 nM | Activity [9]: 19%; AUC [2]: 14700 ng·h/mL

SMILES | EC50 [1] | also measured
C[C@@H]1CN(c2nc(-n3ccc(OCC(C)(C)C)n3)ccc2C(=O)NS(=O)(=O)c2cccnc2N)C(C)(C)C1 | 60 nM | Activity [9]: 2%; AUC [2]: 1200 ng·h/mL
C[C@@H]1CN(c2nc(-n3ccc(OCCC4(C(F)(F)F)CC4)n3)ccc2C(=O)NS(=O)(=O)c2cccc(F)c2)C(C)(C)C1 | 50 nM | AUC [2]: 2700 ng·h/mL
Cc1nn(C)c(C)c1S(=O)(=O)NC(=O)c1ccc(-n2ccc(OCC(C)(C)C(F)(F)F)n2)nc1N1C[C@@H](C)CC1(C)C | – | EC50 [6]: 90 nM; activity at 10 µM [7]: 1%; Papp A→B [8]: 8.8 ×10⁻⁶ cm/s
COc1ccc(C2CCC2)c2c1C(C(=O)NS(=O)(=O)c1cccc3ccccc13)C2 (stereo not drawn) | < 3000 nM | –
COC(=O)c1nc(I)c(C(F)(F)F)cc1N | – | solubility at 12 h [3]: 13 µg/mL (≈ 37.6 µM); CLint [4]: 342 µL/min/mg; EC50 [5]: 360 nM
COc1ccc(Br)c2c1CCCC2C(=O)NS(=O)(=O)c1cccc2ncccc12 (stereo not drawn) | < 3000 nM | –
CCOc1cccc([C@@H]2C[C@]2(C(=O)NS(=O)(=O)c2cccc3nc(C)ccc23)c2cc(C)ccc2OC)n1 | 90 nM | –
COc1ccc(Br)c2c1C(C(=O)NS(=O)(=O)c1cccc3ccccc13)CC2 (stereo not drawn) | < 3000 nM | –
CCc1ccccc1-c1nc(NS(=O)(=O)c2cccc(N(CC)CCCC(=O)O)n2)ccc1C(F)(F)F | 4 nM | –
COc1ccc(C)cc1[C@@]1(C(=O)NS(=O)(=O)c2cccc3nc(C)ccc23)C[C@H](c2ccccc2)CO1 [RISELCAFTOR] | 10 nM | –
Nc1cc(S(=O)(=O)c2ccc(OC(F)(F)F)cc2)cnc1-c1nnc(C(O)C(F)(F)F)o1 (stereo not drawn) | 5.8 nM | –
C[C@@H]1CN(c2nc(-n3ccc(OCC(O)C4(C(F)(F)F)CC4)n3)ccc2C(=O)NS(=O)(=O)c2ccccc2)C(C)(C)C1 (stereo partly drawn) | 240 nM | –
COc1ccc(Br)c2c1CCCC2C(=O)NS(=O)(=O)c1cccc2ccccc12 (stereo not drawn) | < 3000 nM | –
Cc1c(S(=O)(=O)NC(=O)c2ccc(-n3ccc(OCC(C)(C)C(F)(F)F)n3)nc2N2C[C@@H](C)CC2(C)C)cnn1C | – | EC50 [6]: 170 nM; activity at 10 µM [7]: 3%; Papp A→B [8]: 3.8 ×10⁻⁶ cm/s
CC(C)(CO)CN1CCCCCCc2ccccc2-c2nc(ccc2C(F)(F)F)NS(=O)(=O)c2cccc1n2 | 10 nM | –
CC1(C)Cc2c(sc(NC(=O)[C@H](O)C(C)(C)C)c2C(N)=O)C(C)(C)O1 | 3 nM | –
CC1(C)Cc2c(sc(NC(=O)C3(CO)CC3)c2C(N)=O)C(C)(C)O1 | 2.7 nM | –
CCOc1cccc([C@H]2C[C@@]2(C(=O)NS(=O)(=O)c2cccc3nc(C)ccc23)c2cc(C)ccc2OC)n1 | 5 nM | –
CC(C)(CN1CCCCCc2ccccc2-c2nc(ccc2C(F)(F)F)NS(=O)(=O)c2cccc1n2)C(=O)O | 4 nM | –
Cc1nn(C)cc1S(=O)(=O)NC(=O)c1ccc(-n2ccc(OCCC3(C(F)(F)F)CC3)n2)nc1N1C[C@@H](C)CC1(C)C | – | bioavailability [10]: 65%; EC50 [6]: 130 nM; activity at 10 µM [7]: 4%; Papp A→B [8]: 11.7 ×10⁻⁶ cm/s
Cc1ccc(F)cc1-c1nc(NS(=O)(=O)c2cccc(N3CCC[C@@](C)(CC(=O)O)C3)n2)ccc1C(F)(F)F | 2 nM | –
Cc1nn(C)cc1S(=O)(=O)NC(=O)c1ccc(-n2ccc(OCC3(C(F)(F)F)CCC3)n2)nc1N1C[C@@H](C)CC1(C)C | – | bioavailability [10]: 66%; EC50 [6]: 130 nM; activity at 10 µM [7]: 3%; Papp A→B [8]: 2.7 ×10⁻⁶ cm/s
COC(=O)c1nc(-c2ccco2)c(C(F)(F)F)cc1N | – | solubility at 12 h [3]: 2 µg/mL (≈ 6.99 µM); CLint [4]: 351 µL/min/mg; EC50 [5]: 70 nM
CC(C)(CO)CN1CCCCCc2ccccc2-c2nc(ccc2C(F)(F)F)NS(=O)(=O)c2cccc1n2 | 3 nM | –
CCOc1ccc(CC)cc1[C@]1(C(=O)NS(=O)(=O)c2cccc3nc(C)ccc23)CCCO1 | > 300 nM | –
Nc1cc(S(=O)(=O)c2ccc(C(F)(F)F)cc2)cnc1-c1nnc(CO)o1 | 1.6 nM | –
